Laboratory results taken from patent US10154981B2, “Use of a feed composition for reducing methane emission in ruminants, and/or to improve ruminant performance” (DSM IP ASSETS B.V., priority 2011, dated 2018).

Tested on: rumen liquor
Experiment: In vitro test for methane production (modified Hohenheim Forage value Test, HFT)
Details: for Effect on Methanogenesis (% compared to control) / Effect on VFA production (% compared to control): artificial TMR, 8 hours at 39° C.; for Effect on Methanogenesis (% compared to control) / Effect on VFA production (% compared to control) / VFA profile (as percentage of total VFA) Ace. / VFA profile (as percentage of total VFA) But. / VFA profile (as percentage of total VFA) Prop.: average of three experiments; for VFA profile (as percentage of total VFA) Ace.: acetate; for VFA profile (as percentage of total VFA) But.: butyrate; for VFA profile (as percentage of total VFA) Prop.: propionate

Row | SMILES | effect on the acetate/propionate ratio (in words) (3-nitrooxy propanol at 0.01% DM when combined with monensin) | methane inhibition (in words) (3-nitrooxy propanol used at 0.01% DM) | Effect on Methanogenesis (% compared to control) (Dose 0.005 % DM) [%] | Effect on VFA production (% compared to control) (Dose 0.005 % DM) [%] | Effect on Methanogenesis (% compared to control) (Dose 0.01 % DM) [%] | Effect on VFA production (% compared to control) (Dose 0.01 % DM) [%] | VFA profile (as percentage of total VFA) Ace. (Dose 0.005 % DM) | VFA profile (as percentage of total VFA) Ace. (Dose 0.01 % DM) | VFA profile (as percentage of total VFA) But. (Dose 0.005 % DM) | VFA profile (as percentage of total VFA) But. (Dose 0.01 % DM) | VFA profile (as percentage of total VFA) Prop. (Dose 0.005 % DM) | VFA profile (as percentage of total VFA) Prop. (Dose 0.01 % DM)
1 | O=[N+]([O-])OCCCO [3-nitrooxy propanol, 3-Nitrooxypropanol] | further additive effect | maximal methane inhibition | −21 | −3 | −97 | −13 | 57 percentage of total VFA | 50 percentage of total VFA | 7 percentage of total VFA | 8 percentage of total VFA | 36 percentage of total VFA | 42 percentage of total VFA
2 | CC[C@@]1([C@@H]2O[C@@H]([C@H]3O[C@@](O)(CO)[C@H](C)C[C@@H]3C)C[C@@H]2C)CC[C@H]([C@]2(C)CC[C@]3(C[C@H](O)[C@@H](C)[C@@H]([C@@H](C)[C@@H](OC)[C@H](C)C(=O)O)O3)O2)O1 [Monensin, monensin, reference compound] |  |  |  |  | −23 | −6 |  | 56 percentage of total VFA |  | 6 percentage of total VFA |  | 38 percentage of total VFA
